Measured values from publication PMC11321563, “Enolase inhibitors as therapeutic leads for Naegleria fowleri infection” (PLOS Pathogens, 2024).
Entries after “also recorded” stand apart in the source; their conditions may differ. Like-named read-outs stand apart in the source and are kept apart here.

Experiments:
[1] = biological target: N. fowleri ENO (NfENO) (Naegleria fowleri, UniProt A0A6A5BXC3); assay: NfENO coupled enzyme activity/inhibition assay (PK/LDH, NADH fluorescence); format: biochemical
Chain of N. fowleri ENO (NfENO) (A0A6A5BXC3 entry or part of it): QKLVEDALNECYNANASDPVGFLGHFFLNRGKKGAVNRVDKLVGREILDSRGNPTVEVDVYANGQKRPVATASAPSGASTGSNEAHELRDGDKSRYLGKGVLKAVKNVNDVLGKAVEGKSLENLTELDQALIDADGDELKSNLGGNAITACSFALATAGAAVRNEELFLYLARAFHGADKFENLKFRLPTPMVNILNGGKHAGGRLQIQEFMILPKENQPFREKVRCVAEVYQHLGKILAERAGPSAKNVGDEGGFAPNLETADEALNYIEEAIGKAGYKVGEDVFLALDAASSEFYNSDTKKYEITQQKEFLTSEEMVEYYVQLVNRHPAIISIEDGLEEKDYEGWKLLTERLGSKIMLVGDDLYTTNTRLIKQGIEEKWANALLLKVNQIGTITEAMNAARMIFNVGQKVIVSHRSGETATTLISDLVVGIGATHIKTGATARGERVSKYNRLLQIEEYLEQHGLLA
Description: (§1) ENO was assayed in triplicate using a coupled reaction to measure enzyme activity. Briefly, enzyme (50 nM) in assay buffer (100 mM HEPES, pH 8.0, 3.3 mM MgSO4) was loaded in black 96-well plates with or without inhibitors. To start the reaction, substrate buffer (3.75 mM 2-PG, 1.75 mM ADP, 1 U of pyruvate kinase/lactate dehydrogenase, and 0.4 mM NADH in assay buffer) was added to each well. The rate of reduction in fluorescence (excitation: 360 nm; emission: 460 nm), a measure of NAD production, was then scored on a Biotek Synergy H1 microplate reader every 20 seconds for 4 minutes. Kinetic analyses were performed with Prism 9.0 (GraphPad Software, San Diego, CA) using the Michaelis-Menten model. For assays involving inhibitors, compounds (in DMSO) were incubated at RT with enzyme in assay buffer […] for 15 minutes prior to initiation of the reaction by addition of the substrate. All assays were performed in triplicate with vehicle control (DMSO) included.

[2] = tested on: N. fowleri strain Nf69 (ATCC 30215) trophozoites; assay: N. fowleri trophozoite viability, CellTiter-Glo, 48 hr; format: cell-based, Naegleria fowleri; conditions: for EC50: Naegleria fowleri
Description: N. fowleri strain Nf69 (ATCC 30215) or strain TY (ATCC 30107) trophozoites and N. gruberi strain NEG-M (ATCC 30224) were cultured axenically as previously described. Briefly, parasites were seeded at 1 x 10^4 cells/mL (N. fowleri) or 5 x 10^3 cells/mL (N. gruberi) in 100 μL of the indicated medium in white TC-treated 96-well plates (Thermo Scientific Nunc Microwell 136101). For assays under standard growth conditions ("+ glc"), N. fowleri cells were seeded into Nelson’s Complete Media (NCM, 0.17% liver infusion broth (BD Difco, Franklin Lakes, NJ), 0.17% glucose, 0.012% sodium chloride, 0.0136% potassium phosphate monobasic, 0.0142% sodium phosphate dibasic, 0.0004% calcium chloride, 0.0002% magnesium sulfate, 10% heat-inactivated fetal bovine serum (FBS), 1% penicillin-streptomycin) at 37°C. For assays in modified medium ("-glc/+gly"), cells were seeded into the media without glucose but supplemented with 10 mM glycerol. For standard growth of N. gruberi, cells were seeded into PYNFH-complete media (1.0% peptone, 1.0% yeast extract, 0.1% yeast nucleic acid, 0.0015% folic acid, 0.0001% hemin, 0.0362% potassium phosphate monobasic, 0.05% disodium phosphate, 10% heat-inactivated fetal bovine serum (FBS), 1% penicillin-streptomycin) at 25°C. For determination of EC50 value, concentrations of drug ranging from 0.07826–5 μM were used. After culturing for 48 hr (37°C, 5% CO2 for N. fowleri, 25°C, 5% CO2 for N. gruberi) in the presence of compound or vehicle, plates were equilibrated to RT for 15 min and CellTiter Glo reagent (Promega, Madison, WI, USA) was added followed by orbital shaking for 2 min. After an additional incubation (RT, 10 min), luminescence was scored on a BioTek Synergy H1 mircoplate reader. Parasite density was scored and kinetic analyses were performed with Prism 9.0 (GraphPad Software, San Diego, CA) using the Michaelis-Menten model. All viability assays were performed in technical triplicates with at least three biological replicates.

[3] = biological target: human ENO2 (gamma-enolase, HsENO2) (Homo sapiens, UniProt P09104); assay: Human ENO2 coupled enzyme inhibition assay; format: biochemical
Chain of human ENO2 (gamma-enolase, HsENO2) (P09104 whole entry): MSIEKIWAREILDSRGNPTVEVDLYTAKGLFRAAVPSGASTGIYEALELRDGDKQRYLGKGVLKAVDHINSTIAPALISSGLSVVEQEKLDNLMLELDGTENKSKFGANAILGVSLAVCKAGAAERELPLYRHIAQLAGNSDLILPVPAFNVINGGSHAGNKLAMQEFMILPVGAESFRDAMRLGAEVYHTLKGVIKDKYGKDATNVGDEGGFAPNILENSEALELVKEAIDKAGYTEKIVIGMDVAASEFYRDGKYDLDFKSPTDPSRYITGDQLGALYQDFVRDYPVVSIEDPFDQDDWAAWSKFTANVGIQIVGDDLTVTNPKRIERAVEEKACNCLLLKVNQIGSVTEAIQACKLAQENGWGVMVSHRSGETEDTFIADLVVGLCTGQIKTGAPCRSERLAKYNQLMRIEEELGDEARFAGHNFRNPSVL
Description: as §1

[4] = HEK-293 cytotoxicity, CellTiter Blue, 48 hr; format: cell-based; conditions: human, HEK-293 cells (ATCC CRL-1573); HEK-293, 48 hr; no superscript in Fig 1; read-out: Human cell line CC50
Description: HEK-293 (ATCC CRL-1573) cells were cultured axenically in Dulbecco’s Modified Eagle Medium with 4.5g/L D-glucose, L-glutamine (Gibco 11965) and 10% fetal bovine serum (FBS) at 37°C, 5% CO2. […] After a 48 hr incubation (37°C, 5% CO2), CellTiter Blue reagent (Promega, Madison, WI, USA) was added to each well. After an additional 3-hour incubation (37°C, 5% CO2) with reagent, fluorescence was scored on a a BioTek Synergy H1 mircoplate reader and percent growth inhibition values were solved.

[5] = tested on: N. gruberi; assay: N. gruberi growth; format: cell-based, Naegleria gruberi
Description: N. fowleri strain Nf69 (ATCC 30215) or strain TY (ATCC 30107) trophozoites and N. gruberi strain NEG-M (ATCC 30224) were cultured axenically as previously described. Briefly, parasites were seeded at 1 x 10^4 cells/mL (N. fowleri) or 5 x 10^3 cells/mL (N. gruberi) in 100 μL of the indicated medium in white TC-treated 96-well plates (Thermo Scientific Nunc Microwell 136101). For assays under standard growth conditions ("+ glc"), N. fowleri cells were seeded into Nelson’s Complete Media (NCM, 0.17% liver infusion broth (BD Difco, Franklin Lakes, NJ), 0.17% glucose, 0.012% sodium chloride, 0.0136% potassium phosphate monobasic, 0.0142% sodium phosphate dibasic, 0.0004% calcium chloride, 0.0002% magnesium sulfate, 10% heat-inactivated fetal bovine serum (FBS), 1% penicillin-streptomycin) at 37°C. For assays in modified medium ("-glc/+gly"), cells were seeded into the media without glucose but supplemented with 10 mM glycerol. […] After an additional incubation (RT, 10 min), luminescence was scored on a BioTek Synergy H1 mircoplate reader. Parasite density was scored and kinetic analyses were performed with Prism 9.0 (GraphPad Software, San Diego, CA) using the Michaelis-Menten model. […]

[6] = tested on: Human cell line; conditions: read-out: Human cell line CC50, cited from earlier work
[7] = tested on: N. fowleri trophozoites; assay: Unbiased metabolomics of amoebae after HEX treatment (2DLC-MS); format: cell-based, Naegleria fowleri; conditions: cells grown in glycerol, HEX-treated vs untreated
Description: For unbiased metabolomics analyses, N. fowleri trophozoites were grown to near 100% confluency in 6-well TC-treated plates (Thermo Scientific Nunclon Delta Surface 140685). […] Samples were then washed three times in RT PBS prior to the addition of ice-cold CH3CN. Plates were then incubated at –20°C for 20 min, followed by the addition of ice-cold nanopure H2O and removal of the solution to sterile microcentrifuge tubes. This process was repeated twice, and the total volume of extraction material was adjusted to 2.5 x 10^6 cell equivalents per sample. Tubes were stored at –80°C prior to analysis.
Each cell sample was vortexed with glass beads for 5 min in a MM200 Mix Grinder (Retsch USA, Newtown, PA, USA). The mixture was centrifuged at 14,000 rpm for 20 min at 4°C. The supernatant was transferred into a new tube and lyophilized overnight. The dried sample was reconstituted in 60 μL 50% CH3CN and analyzed in random order on a parallel two-dimensional liquid chromatography-mass spectrometry (2DLC-MS) system, a Thermo DIONEX UltiMate 3000 HPLC system (Thermo Fisher Scientific, Waltham, MA, USA) coupled with a Thermo Q Exactive HF Hybrid Quadrupole-Orbitrap Mass Spectrometer (Thermo Fisher Scientific, Waltham, MA, USA). […] Each sample was analyzed by the 2DLC-MS under both positive (+) and negative (–) modes to obtain full MS data for metabolite quantification. […]

[8] = tested on: ENO1-rescued glioma and other control cells; set-up: method as in PMID 33230295; conditions: cited from earlier work
[9] = tested on: intracranial orthotopic ENO1-deficient tumors; set-up: method as in PMID 33230295; conditions: cited from earlier work
[10] = tested on: ENO1-/- glioma cells; conditions: read-out: EC50 against ENO1-/- glioma cells; cited from earlier work
[11] = tested on: Balamuthia mandrillaris; assay: Balamuthia mandrillaris growth; format: cell-based
[12] = tested on: N. fowleri strain 69 trophozoites; assay: Rat model of N. fowleri infection, nasal instillation treatment; format: in vivo, Naegleria fowleri
Source text: Twenty-four CD rats (12 females, 12 males, aged 42–48 days, Charles River) housed in pairs were infected by nasal instillation with 2.5 x 10^5 N. fowleri strain 69 trophozoites that had been isolated after passage through mice to ensure virulence. Rats were provided unlimited food and water throughout the duration of the experiment. The two groups consisted of equal numbers of males and females. […] Rodents were monitored carefully and euthanized when symptoms of infection, including failure to respond to stimuli or seizures, were evident. After 17 days, surviving animals were sacrificed and brains were removed to assess cure.

[13] = Intranasal dose-finding tolerability in uninfected CD rats; format: in vivo, rat; conditions: 1.6, 16, or 120 mg/kg HEX in PBS once daily for five days
[14] = set-up: method as in PMID 33230295; conditions: non-human primates, cited from earlier work
[15] = tested on: Entamoeba histolytica; assay: Entamoeba histolytica growth; format: cell-based
[16] = tested on: N. fowleri strain Nf69 (ATCC 30215) trophozoites; assay: N. fowleri trophozoite viability, CellTiter-Glo, 48 hr; format: cell-based; conditions: Naegleria fowleri, ATCC30215, read-out: EC50 after short exposure
[17] = set-up: method as in PMID 33230295; conditions: rats; cited from earlier work
[18] = recombinant NfENO, 50 nM enzyme, 15 min preincubation with compound, read-out: NfENO IC50
[19] = ATCC30215, 48 h, read-out: N. fowleri EC50
[20] = 15 min preincubation with compound, read-out: HsENO2 IC50
[21] = value with superscript 3 in Fig 1, footnote not given, ref superscript 3

For `O=C(O)[C@@H](CO)OP(=O)(O)O` [2-PG, 2-phosphoglycerate], the Km ([1]; truncation residues 44–512, NafoA.00379.a.B5.PW38978, read-out: apparent KM for 2-PG) was 923 ± 0.336 µM.

For `O=C1C(P(=O)(O)O)CCN1OCc1ccccc1` (centres unmarked) [Benzyl- deoxy- SF2312], the IC50 [1, 18] was greater than 10000 nM, the EC50 [2, 19] was greater than 10000 nM and the IC50 [3, 20] was greater than 10000 nM.

With `O=C1C(P(=O)(O)O)CCCCN1OCc1ccccc1` (centres unmarked) [Benzyl-HEPTA] the IC50 [1, 18] was greater than 10000 nM, the EC50 [2, 19] was greater than 10000 nM and the IC50 [3, 20] was greater than 10000 nM.

In the case of `O=C1C(P(=O)(O)O)CCCN1OCc1ccccc1` (centres unmarked) [BenzylHEX], the “impact on NfENO” value ([1]; at 10 μM) is reported as “no impact”, the IC50 [1, 18] is reported as greater than 10000 nM and the EC50 [2, 19] is reported as greater than 10000 nM. The IC50 [3, 20] was greater than 10000 nM.

`CC(C)OC(=O)[C@H](C)NP(=O)(OCOC(=O)C(C)(C)C)C1CCCN(O)C1=O` (some centres unmarked) [CDP25] gave an IC50 [1] greater than 10000 nM, an EC50 [2, 19] of 310 ± 150 nM and a CC50 at 48 h [4] greater than 5000 nM.

`O=C1C(P(=O)(O)O)CCN1O` (centres unmarked) [Deoxy-SF2312, (1-hydroxy-2-oxopyrrolidin-3-yl) phosphonic acid] gave an IC50 [1] of 1200 ± 470 nM, an EC50 [2, 19] of 950 ± 200 nM and a CC50 at 48 h [4] greater than 200000 nM. For the same compound, the IC50 [3] was 100 ± 40 nM and the “fold more potent against ENO2 than NfENO” value ([3]; ratio of IC50 values) was “more than 10 fold”.

Compound `O=C1C(P(=O)(O)O)CCCCN1O` (centres unmarked) [HEPTA, (1-hydroxy-2-oxoazepan-3-yl) phosphonic acid] has an IC50 [1] of 4700 ± 1400 nM, an EC50 [2, 19] greater than 10000 nM and an IC50 [3] of 5800 ± 880 nM.

In the case of `O=C1C(P(=O)(O)O)CCCN1O` (centres unmarked) [HEX, (1-hydroxy-2-oxopiperidin-3-yl) phosphonic acid], the impact on growth [5] is listed as “no impact”, the CC50 [6, 21] is listed as greater than 300000 nM and the “decrease in pyruvate levels” value [7] is listed as roughly 50%. For the same compound, the CC50 [8] was greater than 300000 nM, the intracranial tumor growth [9] was “almost completely inhibited intracranial tumor growth” and the EC50 [10] was 1300 nM. For the same compound, the impact on growth [11] was “no impact; also recorded: inactive”, the median survival time ([12]; HEX 3 mg/kg nasal instillation for 10 days, >50% of the population survived) was “indeterminable; also recorded: undefined” and the “animals remaining at conclusion of treatment” value ([12]; day 11, HEX 3 mg/kg nasal instillation once a day for 10 days from day 2) was 11 of 12. The “survivors with brains positive for amoebae by culture” value ([12]; of the eight HEX-treated survivors) was “six of the eight and six”, the “adverse effects of intranasal instillation” value [13] was “none of the rats had any noticeable reaction to treatment” and the IC50 [1] was 140 ± 40 nM. The “mode of NfENO inhibition” value [1] was “competitive inhibitor”, the plasma concentrations ([14]; IP 300 mg/kg, for several hours) was “about 750 μM” and the “IP dose tolerated without adverse effects” value ([14]; IP) was 300 mg/kg. It also gave an EC50 [2, 19] of 210 ± 20 nM, an EC50 ([2]; ATCC30215, 336 h, read-out: EC50 of trophozoites cultured from brain of HEX-treated rodent) of 90 ± 40 nM and an EC50 ([2]; ATCC30215, 336 h, read-out: EC50 of trophozoites cultured from brain of PBS-treated (Vehicle) rodent) of 100 ± 80 nM. The EC50 ([2]; ATCC30215, 504 h, read-out: EC50 after removal of selection) was 110 ± 10 nM, the EC50 ([2]; ATCC30215, read-out: EC50 in glycerol medium) was 2500 ± 110 nM and the EC50 ([2]; ATCC30215, read-out: EC50 of HEX-adapted amoebae) was 570 ± 300 nM. For the same compound, the impact on growth [15] was “no impact”, the EC50 [16] was 8060 ± 2600 nM and the IC50 [3] was 360 ± 40 nM. For the same compound, the plasma elimination half-life [17] was “about 60 minutes”.

For `CC(C)(C)C(=O)OCOP(=O)(OCOC(=O)C(C)(C)C)C1CCCN(O)C1=O` (centres unmarked) [POMHEX], the CC50 [6, 21] is listed as greater than 4900 nM, the IC50 [1, 18] is listed as greater than 10000 nM and the EC50 [2, 19] is listed as 700 ± 100 nM. The IC50 [3, 20] was greater than 10000 nM.

With `CC(C)(C)C(=O)OCOP(=O)(OCOC(=O)C(C)(C)C)C1CC(O)N(O)C1=O` (centres unmarked) [POMSF] the IC50 [1, 18] was greater than 10000 nM, the “increase in amoebicidal potency relative to SF2312” value ([2]; EC50 ratio) was “about 2.4 fold” and the EC50 [2, 19] was 660 ± 90 nM. For the same compound, the IC50 [3, 20] was greater than 10000 nM.

In the case of `O=C1C(P(=O)(O)O)CC(O)N1O` (centres unmarked) [SF2312, (1,5-dihydroxy-2-oxopyrrolidin-3-yl) phosphonic acid, reference compound], the CC50 ([6]; value with superscript 1 in Fig 1, footnote not given, ref superscript 1) is given as greater than 200000 nM, the IC50 [1] is given as 310 ± 70 nM and the EC50 [2, 19] is given as 1600 ± 110 nM. It also gave an IC50 [3] of 630 ± 10 nM.
